# Where “and” joins values, the source holds several entries; their conditions need not be identical. Equal entries are not always repeated.
# What was measured:
# [1] = tested on: Apo E^−/− mice; experiment: Apo E−/− mice given RvD5n-3 DPA: lipid mediator profiling of descending aorta; format: in vivo, mouse
# Description: Plasma was obtained from peripheral blood of healthy volunteers and patients following centrifugation at 1500×g for 10 min at room temperature. Descending aortas were weighed, placed in ice-cold methanol and homogenized using a glass dounce.
# All samples for LC-MS-MS-based profiling were extracted using solid-phase extraction columns as described in Dalli et al. 2013 and Rathod et al. 2017, the contents of which are incorporated herein by reference.
# Prior to sample extraction, deuterated internal standards, representing each region in the chromatographic analysis (500 pg each) were added to facilitate quantification in 4V of cold methanol.
# Samples were kept at −20° C. for a minimum of 45 min to allow protein precipitation.
# Supernatants were subjected to solid phase extraction, methyl formate fraction collected, brought to dryness and suspended in phase (methanol/water, 1:1, vol/vol) for injection on a Shimadzu LC-20AD HPLC and a Shimadzu SIL-20AC autoinjector, paired with a triple quadrupole mass spectrometer with or without a linear ion trap.
# An Agilent Poroshell 120 EC-C18 column (100 mm×4.6 mm×2.7 μm) was kept at 50° C. and mediators eluted using a mobile phase consisting of methanol-water-acetic acid of 20:80:0.01 (vol/vol/vol) that was ramped to 50:50:0.01 (vol/vol/vol) over 0.5 min and then to 80:20:0.01 (vol/vol/vol) from 2 min to 11 min, maintained till 14.5 min and then rapidly ramped to 98:2:0.01 (vol/vol/vol) for the next 0.1 min. This was subsequently maintained at 98:2:0.01 (vol/vol/vol) for 5.4 min, and the flow rate was maintained at 0.5 ml/min. Mass spectrometer was operated using a multiple reaction monitoring method as in Walker M E et al. 13-Series resolvins mediate the leukocyte-platelet actions of atorvastatin and pravastatin in inflammatory arthritis. FASEB J. 2017 August; 31(8):3636-3648, the contents of which are incorporated herein by reference.
# Each LM was identified using established criteria including matching retention time to synthetic and authentic materials and at least six diagnostic ions (Walker M E et al. 2017. ibid.)
# Calibration curves were obtained for each using synthetic compound mixtures at 0.78, 1.56, 3.12, 6.25, 12.5, 25, 50, 100, and 200 pg that gave linear calibration curves with an r^2 values of 0.98-0.99.
# (§1) Mice (male and female) were fed a western diet for 6 weeks from 4 weeks of age and kept of a 12 h light dark cycle. At 8 weeks of age, mice were given RvD5n-3 DPA (100 ng/mouse; i.v.) or vehicle on alternate days for a 2-week period. Mice were culled, aortic arches were collected and stained using oil-red O as in Khambata R S et al. Anti-inflammatory actions of inorganic nitrate stabilize the atherosclerotic plaque. Proc Natt Acad Sci USA. 2017; 114(4):E550-E559, the contents of which are incorporated herein by reference. Staining intensity was determined using image processing software and expressed as relative units per mm^2. The descending aorta was collected, placed in ice-cold methanol and lipid mediators identified and quantified as described above.
# [2] = tested on: Apo E^−/− mice; experiment: Apo E−/− mice on western diet given RvD5n-3 DPA: blood leukocyte and platelet activation by flow cytometry; format: in vivo; settings: 100 ng/mouse i.v., alternate days, 2 weeks; vs vehicle
# Description: as §1
# In separate experiments blood was collected from Apo E^−/− mice using heparin-lined syringes via cardiac puncture. Cells were incubated with Fc-blocking IgG and anti-mouse CD11b-PE-Texas Red, CD62P-Brilliant Violet650™, CD115-Brilliant Violet 711™, and CD41-Brilliant Violet 510™ (Biolegend). for 45 minutes on ice. Red blood cells were lysed and fixed using Whole Blood Lysing Reagent Kit. Staining was then evaluated using a flow cytometer and analysis was conducted using appropriate software.
# [3] = 100 ng/mouse i.v., alternate days, 2 weeks, vs vehicle
# [4] = Apo E−/− mice, western diet, RvD5n-3 DPA 100 ng/mouse i.v. alternate days 2 weeks, descending aorta, mean, n = 4
# [5] = ApoE−/− mice, WD 6 weeks, 100 ng/mouse i.v. alternative days, descending aorta, mean ± s.e.m., n = 4
# [6] = ApoE−/− mice, WD 6 weeks, 100 ng/mouse i.v. alternative days, descending aorta, n = 4
smiles,measurement,setting,value
"CC/C=C\C[C@H](O)/C=C/C=C\C/C=C\C=C\[C@@H](O)CCCCCC(=O)O [RvD5n-3 DPA, 7,17-trihydroxy-8E,10,13,15E,19Z-docosapentaenoic acid]",aortic 15-epi-LXA4,[1]; [3],significant upregulation
same,aortic MaR1,[1]; [3],significant upregulation
same,aortic prostanoids,[1]; [3],significant reductions
same,reduction of aortic TxB2 concentrations,[1]; [3],~35% and > 35%
same,PGD2 concentration in aortic tissue,[1]; [4],15.0 pg/10 mg tissue
same,PGE2 concentration in aortic tissue,[1]; [4],16.2 pg/10 mg tissue
same,PGF2a concentration in aortic tissue,[1]; [4],9.1 pg/10 mg tissue
same,TxB2 concentration in aortic tissue,"[1]; Apo E−/− mice, western diet, RvD5n-3 DPA 100 ng/mouse i.v. alternate days 2 weeks, descending aorta, mean, n = 4, p < 0.05 vs Vehicle",30.7 pg/10 mg tissue
same,"4,14-diHDHA in aorta",[1]; [5],4.9 ± 2.0 pg/10 mg aorta
same,"5S,12S-diHETE in aorta",[1]; [5],0.6 ± 0.2 pg/10 mg aorta
same,"5S,15S-diHETE in aorta",[1]; [5],51.9 ± 15.3 pg/10 mg aorta
same,"7S,14S-diHDHA in aorta",[1]; [5],1.8 ± 0.3 pg/10 mg aorta
same,"10S,17S-diHDHA in aorta",[1]; [5],66.0 ± 35.4 pg/10 mg aorta
same,15-epi-LXA4 in aorta,[1]; [5],9.6 ± 1.9 pg/10 mg aorta
same,15-epi-LXB4 in aorta,[1]; [5],1.4 ± 0.5 pg/10 mg aorta
same,17R-PD1 in aorta,[1]; [5],0.3 ± 0.2 pg/10 mg aorta
same,17R-RvD1 in aorta,[1]; [5],1.6 ± 0.9 pg/10 mg aorta
same,17R-RvD3 in aorta,[1]; [5],1.3 ± 0.3 pg/10 mg aorta
same,22-OH-PD1 in aorta,[1]; [5],6.0 ± 1.0 pg/10 mg aorta
same,LTB4 in aorta,[1]; [5],1.7 ± 0.3 pg/10 mg aorta
same,LXA4 in aorta,[1]; [5],0.3 ± 0.0 pg/10 mg aorta
same,LXB4 in aorta,[1]; [5],0.6 ± 0.4 pg/10 mg aorta
same,MaR1 in aorta,[1]; [5],35.4 ± 22.7 pg/10 mg aorta
same,PD1 in aorta,[1]; [5],2.6 ± 0.7 pg/10 mg aorta
same,PD1n-3 DPA in aorta,[1]; [5],0.0 ± 0.0 pg/10 mg aorta
same,PGD2 in aorta,[1]; [5],14.9 ± 3.5 pg/10 mg aorta
same,PGE2 in aorta,[1]; [5],20.5 ± 4.5 pg/10 mg aorta
same,PGF2α in aorta,[1]; [5],10.0 ± 1.7 pg/10 mg aorta
same,RvD1 in aorta,[1]; [5],1.7 ± 0.9 pg/10 mg aorta
same,RvD1n-3 DPA in aorta,[1]; [5],0.1 ± 0.1 pg/10 mg aorta
same,RvD2 in aorta,[1]; [5],0.4 ± 0.4 pg/10 mg aorta
same,RvD2n-3 DPA in aorta,[1]; [5],0.1 ± 0.1 pg/10 mg aorta
same,RvD3 in aorta,[1]; [5],2.4 ± 0.6 pg/10 mg aorta
same,RvD5 in aorta,[1]; [5],0.4 ± 0.2 pg/10 mg aorta
same,RvD5n-3 DPA in aorta,[1]; [5],0.1 ± 0.1 pg/10 mg aorta
same,RvD6 in aorta,[1]; [5],1.5 ± 1.1 pg/10 mg aorta
same,RvE2 in aorta,[1]; [5],0.1 ± 0.1 pg/10 mg aorta
same,RvE3 in aorta,[1]; [5],0.7 ± 0.1 pg/10 mg aorta
same,RvEl in aorta,[1]; [5],1.8 ± 0.5 pg/10 mg aorta
same,TxB2 in aorta,[1]; [5],34.5 ± 4.1 pg/10 mg aorta
same,20-OH-LTB4 in aorta,[1]; [6],— (Below limits of detection)
same,MaR1n-3 DPA in aorta,[1]; [6],— (Below limits of detection)
same,RvD4 in aorta,[1]; [6],— (Below limits of detection)
same,RvT1 in aorta,[1]; [6],— (Below limits of detection)
same,RvT2 in aorta,[1]; [6],— (Below limits of detection)
same,RvT3 in aorta,[1]; [6],— (Below limits of detection)
same,RvT4 in aorta,[1]; [6],— (Below limits of detection)
same,circulating platelet-monocyte aggregates (CD41 and CD62P expression on CD115 positive cells),[2],reduced
same,"monocyte activation, CD11b expression",[2],decrease
same,platelet-neutrophil aggregates and neutrophil activation,[2],significant reduction
same,reduction in neutrophil CD11b expression,[2],> 60%

# Reference: patent US12616672B2, “Methods for assessing risk of cardiovascular disease and methods and compounds for use in treating or preventing cardiovascular disease” (Queen Mary University of London, priority 2017, dated 2026)
